row,melting point [°C],SMILES
1,176 to 177,O=C(Nc1ccc(CCl)cc1)C1=Cc2cc(-c3ccccc3)ccc2CC1
2,270,COc1ccc(Cc2nc(S)[nH]c2Cc2ccc(OC)cc2)cc1
3,223 to 224,COc1cn(-c2ccc(O)cc2F)nc(-c2ccnn2-c2ccccc2)c1=O
4,138 to 140,CCN(CC)CCOc1ccc2cc3ccc(OCCN(CC)CC)c([N+](=O)[O-])c3nc2c1[N+](=O)[O-]
5,149 to 150,N#Cc1cc(O)cc(OCCc2ccccn2)c1N
6,71 to 72,COc1cc(C(C)=O)ccc1OC/C=C/CBr
7,155 to 158,O=c1c(-c2ccccc2)c(CNc2ncnc3[nH]cnc23)oc2ccccc12
8,145,CC(C)(C)OC(=O)Nc1cc(OCc2ccccc2)c2ccc(C#N)cc2c1
9,132 to 134,COc1nc(C)c(C)cc1NC(=O)N1CCN(C(c2ccccc2)c2ccccc2)CC1
10,156 to 157,COc1ccc(-c2c(CO)c(CO)c3sc4ccccc4n23)cc1
11,83 to 86,CN(CCCc1nc2ccccc2[nH]1)C(=O)OCc1ccccc1
12,204 to 208,O=C(O)COc1cccc2c1CCc1sc(S(=O)(=O)C(c3ccccc3F)c3ccccc3F)nc1-2
13,130 to 133,COc1cc2cc(C(=O)N3CC(CCl)c4c3cc(N)c3ccccc43)[nH]c2cc1OCCN(C)C (stereo not drawn)
14,217 to 218,COc1ccc(C(=O)CCC(=O)O)cc1CO
15,164 to 165,COc1cc(F)ccc1Oc1c(Cl)nc(C)nc1NS(=O)(=O)c1ccc(C(C)(C)C)cc1
16,115 to 118,CCOC(=O)/C=C/c1c(CC)cnc2c(NC(=O)c3c(Cl)cccc3Cl)cccc12
17,110 to 112,Cc1[nH]c2ccccc2c1CCCN1CCC(c2noc3ccccc23)CC1
18,147 to 148,Cc1sc(-c2ccccc2)nc1COc1cc(COc2ccccc2CC(=O)O)on1
19,95 to 97,CC(=NOCc1ccccc1-n1c(Cl)nn(C)c1=O)c1cccc(C(F)(F)F)c1
20,232 to 233,COc1cc(C=NNC2=NCCc3ccccc32)cc(OC)c1O
21,173 to 176,Cc1ccc(S(=O)(=O)NC(=O)OCCc2ccc(-n3c(C(C)C)nc4cc(C(=O)N(C)C)c(Cl)cc43)cc2)cc1
22,219 to 220,COc1ccnn2c(-c3ccnc(N)c3)c(-c3ccc(F)c(C)c3)nc12
23,205 to 206,CCOC(=O)c1cc2c(nc(C)n2C)c2c1C(=O)CC1(Cc3ccccc3C1)N2
24,187 to 189,COc1cc2ccc(-c3cc4c(cc3[N+](=O)[O-])OCO4)c([N+](=O)[O-])c2cc1OC

# Further lines, the compound ahead of its results:
row,SMILES,melting point [°C]
1,O=C1CC2Cc3ccccc3C2N1 (stereo not drawn),150 to 153
2,CCCCCCCCCCCCc1ccc2nc3c(c(Cl)c2c1)CCCC3,36 to 38
3,CNS(=O)(=O)c1cccc(OC)c1C#N,121 to 128
4,CC(C)=NN=C(c1ccc(Cl)cc1)c1ccc(OS(C)(=O)=O)cc1,148 to 149
5,CCn1nc(C)c2c1C(=O)NCC(c1ccc(NS(=O)(=O)c3ccccc3S(=O)(=O)c3ccccc3)cc1)=N2,> 230
6,c1cn(Cc2ccc3[nH]c(-n4ccnc4)nc3c2)cn1,226
7,CC(=O)NC(C)Cc1cc2c(cc1CCl)OCO2 (stereo not drawn),132 to 133
8,CC(=O)OCCCCCC(=O)CC(=O)c1ccccc1,23 to 24
9,CCCCCCCCCCCCCCCCOCC(COC(c1ccccc1)(c1ccccc1)c1ccccc1)COS(C)(=O)=O (stereo not drawn),39
10,O=C(O)Cc1c(C(=O)c2ccc(O)cc2)[nH]c2cc(Cl)ccc12,231 to 234
11,C#CCCCCCCCCC(=O)N[C@H]1CCCNC(=O)C1,73 to 75
12,O=C1CC[C@@H]2CCc3ccccc3[C@@H]2CN1Cc1ccccc1 (relative stereo),114 to 115
13,O=C(Nc1n[nH]c(=S)s1)NC(Cc1ccccc1)C(=O)NCCCc1ccccc1 (stereo not drawn),190 to 191
14,Cc1cccc(-c2nc3cccnn3c2-c2ccnc(NCC3CCCO3)c2)c1 (stereo not drawn),137 to 138
15,CC(C)NC(=O)NC(=O)c1ccnc([N+](=O)[O-])c1,132 to 133
16,COC(=O)CCC(=O)c1ccc(-c2ccc(OC)cc2)cc1,96 to 100
17,Cc1cc(C)c2c(c1)OC(C)(COc1ccc([N+](=O)[O-])cc1)CC2=O (stereo not drawn),86 to 88.5
18,COC(=O)C1=NNC(C)=C(C(=O)OC(C)C)C1c1cccc([N+](=O)[O-])c1 (stereo not drawn),193
19,Nn1cc(C(=O)O)c(=O)c2cc3c(cc21)OCO3,309 to 313
20,CC(=O)Nc1cc(C(=O)NNC(=O)c2occ(-c3ccccc3)c2-c2ccccc2)ccc1O,233 to 235
21,COC(=O)c1ccc(NC=O)cc1S(=O)(=O)NC(C)(C)C,113 to 114
22,CC1(C)CCC(C)(C)c2cc(OCc3ccc(C(=O)O)cc3)ccc21,> 330
23,CC(C)n1c2ccccc2c2sccc(=O)c21,154 to 156
24,O=C1c2ccccc2C(=O)N1CCc1cc(Br)cs1,115 to 117
25,CC1(C(=O)O)CCCc2cc(C3CCCCC3)ccc21 (stereo not drawn),128 to 129

row,SMILES,melting point [°C]
1,COc1cc2c(cc1OC)CC(NC(=O)C1CCCN1C(C)=O)CC2 (stereo not drawn),63 to 65
2,CCOC(=O)c1ccc(C(=O)CBr)cc1,67 to 68.5
3,CC1(C)CN(c2ncc(C(=O)O)c(N)n2)C(=O)N1,290 to 291
4,CCC(=O)c1ccc(SC)cc1,60 to 61
5,Cc1nc2cc(-c3ccco3)ccc2o1,60
6,CC(C)c1c(-c2ccccc2)[nH]c2nccnc12,216 to 218
7,CSc1nnc(C2CCCCC2)c(=O)n1C,84 to 88
8,CCCCCCCCCCCCCCCCCC(=O)NCC(C)(C)CO,44
9,CSCC(=O)[C@H](Cc1cccs1)NC(=O)[C@H](CC(C)C)NC(=O)OCc1ccccc1,93 to 97
10,O=c1c(CCCc2ccoc2)cc2cccnc2n1-c1cccc([N+](=O)[O-])c1,185 to 186
11,CCS(=O)(=O)c1cnc(Cl)c(Cl)c1,141 to 142
12,COc1ccc(C(=O)C2(Br)CCCCC2)c(Cl)c1Cl,94 to 95
13,O=Cc1ccnc2c1NC(=O)c1cccnc1N2C1CC1,220 to 222
14,Cc1nn(C)c2nc(N)c(-c3cccc(Cl)c3)nc12,224 to 226
15,CN1C(=O)C(Cc2ccncc2)(Cc2ccncc2)NC1=S,225 to 227
16,Cc1cc(CBr)nc2ccccc12,92
17,Nc1ccc(S(=O)(=O)c2cc(-c3ccc(F)cc3)nc(N3CCCC3)c2)cc1,245 to 246
18,O=[N+]([O-])c1ccc(-c2nc3c(Cl)ncnc3o2)cc1,231
19,Cc1nnc(N2C(=O)C(O)=C(C(=O)c3ccc(C(C)C)cc3)C2c2ccc(OC(F)(F)F)cc2)s1 (stereo not drawn),260
20,Nc1c(Cl)cc(-c2nn(C3CCN(CCCC(F)(F)F)CC3)c(=O)o2)c2c1OCCO2,188
21,O=Cc1ccc(-c2cn(S(=O)(=O)c3ccccc3)c3ccccc23)o1,140
22,O=S(Cc1c(F)cccc1Cl)c1nc2cnccc2[nH]1 (stereo not drawn),180 to 183
23,O=C1NC(=O)C2(CCCc3ncc(Cl)cc32)N1 (stereo not drawn),230 to 233
24,CCOC(=O)c1cnn(-c2ccc(F)cc2)c1Cl,70 to 72
